Laboratory results as given in ChEMBL document CHEMBL5212743, “Selectivity Literature for EUbOPEN Chemogenomics Library wave 3” (2023).
Values belong to the molecule of their own block, whether it stands above or below them.

Columns and labels:
D(3) dopamine receptor = D(3) dopamine receptor (Homo sapiens, UniProt P35462); experiment: Selectivity interaction (NIBR principial panel (12 GPCRs, 3 nuclear receptors, 3 transporters, and 7 other enzymes)) EUB0000254b DRD3
Acetylcholinesterase = Acetylcholinesterase (Homo sapiens, UniProt P22303); experiment: Selectivity interaction (NIBR principial panel (12 GPCRs, 3 nuclear receptors, 3 transporters, and 7 other enzymes)) EUB0000254b ACHE
Acetylcholinesterase, sequence (P22303 whole entry): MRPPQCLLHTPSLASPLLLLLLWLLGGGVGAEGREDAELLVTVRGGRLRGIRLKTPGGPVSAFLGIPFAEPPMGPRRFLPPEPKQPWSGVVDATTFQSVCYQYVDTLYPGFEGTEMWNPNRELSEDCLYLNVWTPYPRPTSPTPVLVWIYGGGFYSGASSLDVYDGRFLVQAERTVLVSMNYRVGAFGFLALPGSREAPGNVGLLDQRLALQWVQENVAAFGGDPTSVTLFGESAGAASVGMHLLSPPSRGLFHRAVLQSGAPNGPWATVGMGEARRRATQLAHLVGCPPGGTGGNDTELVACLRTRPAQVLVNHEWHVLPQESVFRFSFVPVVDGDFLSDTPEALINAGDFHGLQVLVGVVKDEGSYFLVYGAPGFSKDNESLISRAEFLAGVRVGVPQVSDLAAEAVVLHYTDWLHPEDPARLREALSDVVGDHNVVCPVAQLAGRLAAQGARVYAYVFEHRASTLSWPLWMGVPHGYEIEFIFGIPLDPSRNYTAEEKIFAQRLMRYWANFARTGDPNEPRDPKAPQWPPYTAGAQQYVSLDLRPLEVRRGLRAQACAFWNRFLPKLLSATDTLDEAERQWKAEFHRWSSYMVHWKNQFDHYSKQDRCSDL

[1] = biological target: Prostaglandin G/H synthase 2 (Homo sapiens, UniProt P35354); experiment: Selectivity interaction (NIBR principial panel (12 GPCRs, 3 nuclear receptors, 3 transporters, and 7 other enzymes)) EUB0000254b PTGS2
[2] = biological target: 5'-AMP-activated protein kinase catalytic subunit alpha-1 (Homo sapiens, UniProt Q13131); experiment: Selectivity interaction (Upstate Kinase Profiler service (Millipore)) EUB0000056c PRKAA1
5'-AMP-activated protein kinase catalytic subunit alpha-1, sequence (Q13131 whole entry): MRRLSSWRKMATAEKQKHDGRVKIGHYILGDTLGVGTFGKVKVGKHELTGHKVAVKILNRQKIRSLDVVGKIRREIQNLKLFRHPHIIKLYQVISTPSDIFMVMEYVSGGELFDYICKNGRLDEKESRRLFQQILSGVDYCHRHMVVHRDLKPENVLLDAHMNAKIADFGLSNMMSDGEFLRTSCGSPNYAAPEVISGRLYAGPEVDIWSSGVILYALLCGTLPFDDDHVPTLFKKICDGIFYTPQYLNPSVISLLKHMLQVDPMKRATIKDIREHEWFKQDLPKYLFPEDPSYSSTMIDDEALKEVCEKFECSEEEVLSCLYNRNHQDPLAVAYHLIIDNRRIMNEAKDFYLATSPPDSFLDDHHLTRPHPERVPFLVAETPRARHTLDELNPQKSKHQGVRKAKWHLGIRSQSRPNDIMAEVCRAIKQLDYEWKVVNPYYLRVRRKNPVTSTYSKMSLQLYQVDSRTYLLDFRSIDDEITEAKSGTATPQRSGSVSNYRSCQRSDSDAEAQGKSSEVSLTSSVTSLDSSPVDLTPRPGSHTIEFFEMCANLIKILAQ

[3] = biological target: Calcium/calmodulin-dependent protein kinase type II subunit beta (Homo sapiens, UniProt Q13554); experiment: Selectivity interaction (Upstate Kinase Profiler service (Millipore)) EUB0000056c CAMK2B
Calcium/calmodulin-dependent protein kinase type II subunit beta, sequence (Q13554 whole entry): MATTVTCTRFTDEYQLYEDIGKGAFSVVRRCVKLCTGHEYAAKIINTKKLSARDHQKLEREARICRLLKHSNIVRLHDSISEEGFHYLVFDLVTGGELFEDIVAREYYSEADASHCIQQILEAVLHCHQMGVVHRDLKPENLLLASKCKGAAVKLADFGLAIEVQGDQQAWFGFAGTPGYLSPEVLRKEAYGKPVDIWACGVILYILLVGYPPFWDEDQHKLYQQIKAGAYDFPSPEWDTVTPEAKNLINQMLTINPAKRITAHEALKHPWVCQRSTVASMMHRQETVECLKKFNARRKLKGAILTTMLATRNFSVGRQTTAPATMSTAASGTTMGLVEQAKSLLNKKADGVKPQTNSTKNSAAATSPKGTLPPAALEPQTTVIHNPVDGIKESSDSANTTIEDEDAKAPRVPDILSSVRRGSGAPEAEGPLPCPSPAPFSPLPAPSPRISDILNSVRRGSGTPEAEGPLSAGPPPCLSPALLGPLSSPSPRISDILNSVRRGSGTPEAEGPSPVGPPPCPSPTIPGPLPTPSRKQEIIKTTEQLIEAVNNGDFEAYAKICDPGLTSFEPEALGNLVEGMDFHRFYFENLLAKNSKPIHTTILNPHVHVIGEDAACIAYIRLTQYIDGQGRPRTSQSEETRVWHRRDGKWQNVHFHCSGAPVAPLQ

[4] = biological target: 5-hydroxytryptamine receptor 7 (Homo sapiens, UniProt P34969); experiment: Selectivity interaction (GPCR panel (PDSP screen)) EUB0000747a HTR7
5-hydroxytryptamine receptor 7, sequence (P34969 whole entry): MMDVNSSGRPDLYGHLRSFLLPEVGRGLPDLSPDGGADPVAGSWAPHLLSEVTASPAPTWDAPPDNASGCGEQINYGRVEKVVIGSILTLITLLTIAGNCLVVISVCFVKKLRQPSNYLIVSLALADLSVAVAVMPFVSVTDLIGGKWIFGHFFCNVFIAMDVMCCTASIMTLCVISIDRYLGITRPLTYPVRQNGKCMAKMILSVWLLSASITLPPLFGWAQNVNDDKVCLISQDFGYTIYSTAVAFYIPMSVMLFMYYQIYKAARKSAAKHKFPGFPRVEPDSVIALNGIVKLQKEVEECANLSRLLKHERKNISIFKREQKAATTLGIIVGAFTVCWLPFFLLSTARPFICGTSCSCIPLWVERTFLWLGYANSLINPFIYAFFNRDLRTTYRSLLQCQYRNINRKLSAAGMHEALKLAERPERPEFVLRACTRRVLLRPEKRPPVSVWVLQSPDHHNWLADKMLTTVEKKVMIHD

[5] = test system: T1, Receptor-type tyrosine-protein kinase FLT3 (Homo sapiens), P36888 [D835Y]; experiment: Selectivity interaction (KinomeScan (DiscoverX)) EUB0000747a FLT3; conditions: at 1 µM
T1 sequence (whole entry): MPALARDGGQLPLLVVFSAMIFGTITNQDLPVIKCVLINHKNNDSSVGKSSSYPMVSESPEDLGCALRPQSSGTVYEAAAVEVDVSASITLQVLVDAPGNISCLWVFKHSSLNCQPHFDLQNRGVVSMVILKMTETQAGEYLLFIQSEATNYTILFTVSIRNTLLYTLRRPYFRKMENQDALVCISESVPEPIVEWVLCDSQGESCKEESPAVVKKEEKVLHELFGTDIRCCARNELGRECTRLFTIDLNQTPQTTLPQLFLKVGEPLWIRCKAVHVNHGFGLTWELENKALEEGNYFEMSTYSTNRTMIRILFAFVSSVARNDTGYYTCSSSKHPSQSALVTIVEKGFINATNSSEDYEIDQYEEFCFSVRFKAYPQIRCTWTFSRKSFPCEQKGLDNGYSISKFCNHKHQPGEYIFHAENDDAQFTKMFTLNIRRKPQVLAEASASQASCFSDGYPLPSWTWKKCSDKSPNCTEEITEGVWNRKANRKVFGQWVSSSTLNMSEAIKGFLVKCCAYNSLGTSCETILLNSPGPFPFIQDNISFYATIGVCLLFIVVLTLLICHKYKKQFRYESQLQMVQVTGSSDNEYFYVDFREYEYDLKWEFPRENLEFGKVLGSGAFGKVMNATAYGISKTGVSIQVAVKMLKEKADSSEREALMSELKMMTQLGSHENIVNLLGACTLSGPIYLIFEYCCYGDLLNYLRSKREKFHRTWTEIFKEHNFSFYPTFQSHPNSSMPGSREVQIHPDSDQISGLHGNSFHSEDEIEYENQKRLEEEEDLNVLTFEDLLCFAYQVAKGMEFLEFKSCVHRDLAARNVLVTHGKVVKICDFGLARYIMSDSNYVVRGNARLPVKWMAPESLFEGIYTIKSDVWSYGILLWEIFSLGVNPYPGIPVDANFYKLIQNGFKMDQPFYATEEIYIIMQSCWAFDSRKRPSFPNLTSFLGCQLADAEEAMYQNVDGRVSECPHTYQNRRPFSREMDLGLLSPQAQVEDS

[6] = biological target: Microtubule-associated serine/threonine-protein kinase 1 (Homo sapiens) (UniProt Q9Y2H9); experiment: Selectivity interaction (KinomeScan (DiscoverX)) EUB0000747a MAST1; conditions: at 1 µM
Microtubule-associated serine/threonine-protein kinase 1 (Homo sapiens), sequence (Q9Y2H9 whole entry, looked up): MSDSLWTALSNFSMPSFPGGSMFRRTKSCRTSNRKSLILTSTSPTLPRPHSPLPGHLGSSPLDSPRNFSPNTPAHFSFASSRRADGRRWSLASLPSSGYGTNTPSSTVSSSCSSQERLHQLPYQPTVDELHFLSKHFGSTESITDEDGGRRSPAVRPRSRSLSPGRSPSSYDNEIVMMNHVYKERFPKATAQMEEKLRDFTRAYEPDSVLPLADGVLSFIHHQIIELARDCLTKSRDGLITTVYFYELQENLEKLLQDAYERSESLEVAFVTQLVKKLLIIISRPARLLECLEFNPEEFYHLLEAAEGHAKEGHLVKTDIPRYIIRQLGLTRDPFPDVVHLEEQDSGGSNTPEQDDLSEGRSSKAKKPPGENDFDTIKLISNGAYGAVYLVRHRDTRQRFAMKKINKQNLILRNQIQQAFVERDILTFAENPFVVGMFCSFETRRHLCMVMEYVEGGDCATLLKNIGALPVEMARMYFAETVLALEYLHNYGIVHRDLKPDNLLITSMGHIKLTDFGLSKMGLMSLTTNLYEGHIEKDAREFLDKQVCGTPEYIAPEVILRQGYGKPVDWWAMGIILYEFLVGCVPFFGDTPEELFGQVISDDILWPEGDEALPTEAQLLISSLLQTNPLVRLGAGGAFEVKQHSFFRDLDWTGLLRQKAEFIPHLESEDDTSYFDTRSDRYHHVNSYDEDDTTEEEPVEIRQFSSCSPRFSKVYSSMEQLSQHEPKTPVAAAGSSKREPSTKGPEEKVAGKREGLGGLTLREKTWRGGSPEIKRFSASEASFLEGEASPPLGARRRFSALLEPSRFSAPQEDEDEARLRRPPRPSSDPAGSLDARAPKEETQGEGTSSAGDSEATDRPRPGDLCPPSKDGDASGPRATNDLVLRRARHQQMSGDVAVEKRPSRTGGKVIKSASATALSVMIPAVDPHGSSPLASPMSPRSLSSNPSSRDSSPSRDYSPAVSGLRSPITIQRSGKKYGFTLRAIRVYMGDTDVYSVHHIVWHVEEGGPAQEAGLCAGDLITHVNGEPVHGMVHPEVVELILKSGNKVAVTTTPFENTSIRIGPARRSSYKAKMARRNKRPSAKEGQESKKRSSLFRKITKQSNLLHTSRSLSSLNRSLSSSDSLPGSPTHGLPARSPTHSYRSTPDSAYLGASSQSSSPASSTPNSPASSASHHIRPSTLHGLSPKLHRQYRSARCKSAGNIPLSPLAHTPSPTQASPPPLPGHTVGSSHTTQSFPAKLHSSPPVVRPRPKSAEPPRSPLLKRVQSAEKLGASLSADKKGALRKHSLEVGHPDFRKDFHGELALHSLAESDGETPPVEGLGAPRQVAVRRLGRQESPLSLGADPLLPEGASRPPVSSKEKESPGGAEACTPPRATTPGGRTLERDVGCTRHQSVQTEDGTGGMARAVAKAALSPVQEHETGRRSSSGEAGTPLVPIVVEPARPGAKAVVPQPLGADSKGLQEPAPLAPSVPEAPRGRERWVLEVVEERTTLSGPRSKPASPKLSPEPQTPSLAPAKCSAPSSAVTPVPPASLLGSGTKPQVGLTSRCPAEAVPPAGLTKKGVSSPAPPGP

[7] = biological target: Death-associated protein kinase 2 (Homo sapiens) (UniProt Q9UIK4); experiment: Selectivity interaction (KinomeScan (DiscoverX)) EUB0000747a DAPK2; conditions: at 1 µM
Death-associated protein kinase 2 (Homo sapiens), sequence (Q9UIK4 whole entry, looked up): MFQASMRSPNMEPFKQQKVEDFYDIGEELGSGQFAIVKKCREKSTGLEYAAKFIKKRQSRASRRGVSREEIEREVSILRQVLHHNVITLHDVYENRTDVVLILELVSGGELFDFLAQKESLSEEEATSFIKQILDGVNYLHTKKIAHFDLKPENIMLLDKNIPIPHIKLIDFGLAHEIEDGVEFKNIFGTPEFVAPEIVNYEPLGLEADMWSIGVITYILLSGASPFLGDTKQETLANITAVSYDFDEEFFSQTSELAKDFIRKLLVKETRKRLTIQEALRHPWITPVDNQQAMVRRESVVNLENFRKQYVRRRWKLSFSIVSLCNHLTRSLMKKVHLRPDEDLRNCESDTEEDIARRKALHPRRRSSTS

D(3) dopamine receptor, sequence (P35462 whole entry): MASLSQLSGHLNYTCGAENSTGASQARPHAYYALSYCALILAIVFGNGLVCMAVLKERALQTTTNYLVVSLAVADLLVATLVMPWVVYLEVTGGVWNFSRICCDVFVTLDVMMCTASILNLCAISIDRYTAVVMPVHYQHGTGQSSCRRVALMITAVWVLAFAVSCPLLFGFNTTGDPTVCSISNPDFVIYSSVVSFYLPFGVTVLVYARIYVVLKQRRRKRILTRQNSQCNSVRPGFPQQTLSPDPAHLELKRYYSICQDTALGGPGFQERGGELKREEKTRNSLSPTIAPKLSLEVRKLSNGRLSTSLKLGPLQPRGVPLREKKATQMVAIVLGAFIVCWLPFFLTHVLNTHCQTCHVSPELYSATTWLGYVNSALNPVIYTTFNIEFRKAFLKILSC

SMILES: Cc1c(Nc2ccc(S(=O)(=O)N3CCN(C)CC3)cc2F)nc2ccc(Nc3cnn(C4CC4)c3)cn2c1=O
- IC50 (D(3) dopamine receptor): 950 nM
- IC50 (Acetylcholinesterase): 5500 nM
- IC50 [1]: 800 nM

- IC50 [2]: 117 nM
- IC50 [3]: 70 nM
SMILES: Cc1ccc(-c2ccc3c(ccc4sc5c(c43)NC[C@@H](C)NC5=O)n2)cn1

- Ki [4]: > 10000 nM
- % of control [5]: 42%
- % of control [6]: 29%
SMILES: CO[C@@H](C)c1c(Nc2ccc([C@@H](N(C)C(=O)C3CCS(=O)(=O)CC3)C(F)(F)F)cc2)cnc2cc(Cl)nn12 [NVS-MALT1-C]
- % of control [7]: 41%
